Key:
[1] = Cytotoxicity against mouse HT22 cells as cell viability at 5 uM after 24 hrs by MTT assay relative to control; format: cell-based, HT-22; conditions: read-out: Activity
[2] = target: Translocator protein (Mus musculus) (UniProt P50637); assay: Inhibition of TSPO in mouse HT22 cells assessed as reduction in amyloid beta (1 to 42) (unknown origin) induced mitochondrial permeability transition pore formation by measuring increase in green to red fluorescence ratio at 5 uM pretreated for 10 mins followed by amyloid beta (1 to 42) stimulation and measured at 1 hr interval for 3 hrs by JC-1 dye based fluorescence assay relative to control; format: cell-based; design: scale not given: the % may be the effect or the level left
Chain of Translocator protein (Mus musculus) (P50637 whole entry, looked up): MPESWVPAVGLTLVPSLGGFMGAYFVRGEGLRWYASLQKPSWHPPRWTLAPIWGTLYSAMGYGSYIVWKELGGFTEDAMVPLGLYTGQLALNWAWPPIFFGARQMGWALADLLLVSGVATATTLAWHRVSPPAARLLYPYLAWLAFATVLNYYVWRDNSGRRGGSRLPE

[3] = target: Translocator protein (Mus musculus) (UniProt P50637); assay: Inhibition of TSPO in mouse HT22 cells assessed as recovery of ATP production at 5 uM preincubated for 10 mins followed by amyloid beta (1 to 42) stimulation and measured after 7 hrs by luciferase based assay relative to control; format: cell-based; design: scale not given: the % may be the effect or the level left
CYP2C19 = CYP2C19 (Homo sapiens, UniProt P33261); assay: Inhibition of human CYP2C19 assessed as remaining enzyme activity at 10 uM preincubated for 5 mins followed by Vivid CYP substrate addition measured after 20 mins by fluorescence assay relative to control; format: ADME; conditions: probe Vivid CYP substrate, read-out: Activity
Chain of CYP2C19 (P33261 whole entry): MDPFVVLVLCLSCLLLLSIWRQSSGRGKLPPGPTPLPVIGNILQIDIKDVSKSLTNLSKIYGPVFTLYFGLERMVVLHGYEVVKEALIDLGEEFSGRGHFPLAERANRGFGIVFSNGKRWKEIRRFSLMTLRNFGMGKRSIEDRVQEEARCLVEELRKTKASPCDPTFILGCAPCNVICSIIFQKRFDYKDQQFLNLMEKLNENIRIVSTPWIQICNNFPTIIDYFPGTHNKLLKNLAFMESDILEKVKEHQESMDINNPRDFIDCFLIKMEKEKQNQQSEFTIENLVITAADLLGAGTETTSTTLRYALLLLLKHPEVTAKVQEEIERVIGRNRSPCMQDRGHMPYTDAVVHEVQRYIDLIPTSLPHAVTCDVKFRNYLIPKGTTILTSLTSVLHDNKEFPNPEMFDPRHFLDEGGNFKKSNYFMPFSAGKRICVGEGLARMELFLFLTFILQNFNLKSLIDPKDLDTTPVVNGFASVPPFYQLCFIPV

CYP3A4 = CYP3A4 (Homo sapiens, UniProt P08684); assay: Inhibition of human CYP3A4 assessed as remaining enzyme activity at 10 uM preincubated for 5 mins followed by Vivid CYP substrate addition measured after 20 mins by fluorescence assay relative to control; format: ADME; conditions: probe Vivid CYP substrate, read-out: Activity
Chain of CYP3A4 (P08684 whole entry): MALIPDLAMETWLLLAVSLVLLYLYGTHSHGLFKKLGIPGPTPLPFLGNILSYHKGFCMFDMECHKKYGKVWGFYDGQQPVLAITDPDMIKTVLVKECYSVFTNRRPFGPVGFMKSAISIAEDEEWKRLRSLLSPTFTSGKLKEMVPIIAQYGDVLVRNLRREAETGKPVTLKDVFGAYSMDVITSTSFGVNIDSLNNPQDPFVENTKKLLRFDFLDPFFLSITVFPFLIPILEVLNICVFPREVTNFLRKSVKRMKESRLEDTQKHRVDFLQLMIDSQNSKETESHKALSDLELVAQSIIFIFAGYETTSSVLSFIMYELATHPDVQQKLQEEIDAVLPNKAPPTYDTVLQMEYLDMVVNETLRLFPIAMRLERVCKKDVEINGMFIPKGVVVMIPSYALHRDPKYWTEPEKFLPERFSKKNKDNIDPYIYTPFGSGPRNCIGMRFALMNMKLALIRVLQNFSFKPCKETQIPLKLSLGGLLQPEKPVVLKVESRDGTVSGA

Translocator protein = Translocator protein (Rattus norvegicus, UniProt P16257); assay: Displacement of [3H]PK11195 from TSPO in Sprague-Dawley rat cerebral cortex membranes after 60 mins by liquid scintillation counting analysis; design: species or system Membrane
Chain of Translocator protein (P16257 whole entry, looked up): as the sequence (P50637 whole entry, looked up) above, with P2S, E3Q, V67I, D77E, A110V, L113M, V149M, P168T counted along it

CYP2C9 = CYP2C9 (Homo sapiens, UniProt P11712); assay: Inhibition of human CYP2C9 assessed as remaining enzyme activity at 10 uM preincubated for 5 mins followed by Vivid CYP substrate addition measured after 20 mins by fluorescence assay relative to control; format: ADME; conditions: probe Vivid CYP substrate, read-out: Activity
Chain of CYP2C9 (P11712 whole entry): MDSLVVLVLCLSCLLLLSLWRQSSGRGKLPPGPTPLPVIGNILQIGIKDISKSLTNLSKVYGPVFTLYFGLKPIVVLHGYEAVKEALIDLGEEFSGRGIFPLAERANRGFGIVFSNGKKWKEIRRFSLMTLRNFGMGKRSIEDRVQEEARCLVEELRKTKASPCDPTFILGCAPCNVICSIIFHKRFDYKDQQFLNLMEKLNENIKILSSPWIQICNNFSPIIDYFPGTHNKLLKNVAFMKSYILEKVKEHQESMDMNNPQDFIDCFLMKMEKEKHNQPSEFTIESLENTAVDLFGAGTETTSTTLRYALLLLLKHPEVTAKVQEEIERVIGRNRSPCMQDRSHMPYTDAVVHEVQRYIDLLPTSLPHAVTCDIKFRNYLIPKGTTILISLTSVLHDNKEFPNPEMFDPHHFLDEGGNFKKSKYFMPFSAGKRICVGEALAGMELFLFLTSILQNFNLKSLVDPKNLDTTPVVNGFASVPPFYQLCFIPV

CYP1A2 = target: T1, CYP1A2 (Homo sapiens, UniProt P05177); assay: Inhibition of human CYP1A2 assessed as remaining enzyme activity at 10 uM preincubated for 5 mins followed by Vivid CYP substrate addition measured after 20 mins by fluorescence assay relative to control; format: ADME; conditions: probe Vivid CYP substrate, read-out: Activity
T1 sequence (P05177 whole entry): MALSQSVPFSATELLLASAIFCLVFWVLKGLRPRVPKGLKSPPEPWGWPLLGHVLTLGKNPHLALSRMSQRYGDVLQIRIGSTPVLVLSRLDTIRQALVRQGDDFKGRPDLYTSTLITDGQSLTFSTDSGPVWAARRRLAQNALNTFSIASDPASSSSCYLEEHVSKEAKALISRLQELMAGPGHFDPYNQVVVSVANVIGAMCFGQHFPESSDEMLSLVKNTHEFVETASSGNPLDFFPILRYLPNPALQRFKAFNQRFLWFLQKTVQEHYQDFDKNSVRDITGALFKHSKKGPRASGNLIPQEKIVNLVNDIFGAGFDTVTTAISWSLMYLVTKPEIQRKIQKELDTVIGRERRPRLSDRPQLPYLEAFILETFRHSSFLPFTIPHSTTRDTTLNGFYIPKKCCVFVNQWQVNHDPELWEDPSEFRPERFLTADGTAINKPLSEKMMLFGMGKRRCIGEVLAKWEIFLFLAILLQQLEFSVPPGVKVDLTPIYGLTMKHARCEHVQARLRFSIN

CYP2D6 = CYP2D6 (Homo sapiens, UniProt P10635); assay: Inhibition of human CYP2D6 assessed as remaining enzyme activity at 10 uM preincubated for 5 mins followed by Vivid CYP substrate addition measured after 20 mins by fluorescence assay relative to control; format: ADME; conditions: probe Vivid CYP substrate, read-out: Activity
Chain of CYP2D6 (P10635 whole entry): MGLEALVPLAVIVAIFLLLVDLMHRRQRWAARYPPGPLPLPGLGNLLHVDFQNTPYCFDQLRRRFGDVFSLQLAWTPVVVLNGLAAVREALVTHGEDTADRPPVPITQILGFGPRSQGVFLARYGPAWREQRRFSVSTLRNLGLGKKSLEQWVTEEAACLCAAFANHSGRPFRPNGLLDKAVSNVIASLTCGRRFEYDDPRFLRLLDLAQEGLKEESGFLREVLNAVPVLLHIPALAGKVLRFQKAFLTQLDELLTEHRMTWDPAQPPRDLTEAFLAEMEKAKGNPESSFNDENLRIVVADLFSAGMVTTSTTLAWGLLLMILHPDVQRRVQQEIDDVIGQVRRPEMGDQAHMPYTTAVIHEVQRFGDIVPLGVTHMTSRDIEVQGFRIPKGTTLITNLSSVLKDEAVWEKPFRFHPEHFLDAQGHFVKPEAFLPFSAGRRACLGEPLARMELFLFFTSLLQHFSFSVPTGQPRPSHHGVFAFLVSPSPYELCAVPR

Structure (SMILES) | viability at 24 h, 5 µM [1] [%] | Activity [2] [%] | Activity [3] [%] | further results
CCc1nnc(SCC(=O)N2CCN(c3ccccc3)CC2)c2cc3sccc3n12 | 68 | 53 | -4 | 
CCc1nn(CC(=O)N2CCN(c3ccccc3)CC2)c(=O)c2cc3sccc3n12 | 91 | 56 | 9 | 
CCc1nnc(SCC(=O)N(CC)Cc2ccccc2)c2cc3sccc3n12 | 99 | 56 | 1 | 
CCOC(=O)C(C)N1C(=O)CN=C(c2cccc(C)c2)c2c1sc1c2CCCC1 (stereo unspecified) |  | 0 |  | 
C=CCN1C(=O)CN=C(c2ccc(C(C)(C)C)cc2)c2c1sc1c2CCCC1 |  | 14 |  | 
CCOC(=O)C(C)N1C(=O)CN=C(c2ccc(OC)cc2)c2c1sc1c2CCCC1 (stereo unspecified) |  | 24 |  | 
CCN(C(=O)CCl)c1ncc(-c2ccc(OC)cc2)s1 |  | 0 |  | 
Cc1ccc(S(=O)(=O)Nc2ccc3c(c2)sc(=O)n3C)c(C)c1 |  | 4 |  | 
Cc1ccc2c(c1)C(c1ccccc1)=NCC(=O)N2C |  | 1 |  | 
COc1ccc(NC(=O)CSc2nnc(C)n3c2cc2sccc23)cc1OC | 99 | 55 | 0 | 
Cn1c(SCC(=O)NCc2ccccc2)nnc1-c1cc2ccccc2o1 |  | 19 |  | 
CCc1nnc(SCC(=O)Nc2ccccc2)c2cc3sccc3n12 | 91 | 48 | -3 | 
CCN(Cc1ccccc1)C(=O)CSc1nnc(C)n2c1cc1sc(C)cc12 | 97 | 66 | 26 | activity at 20 min, 10 µM (CYP2C19): 10.2%; activity at 20 min, 10 µM (CYP3A4): 51.4%; IC50 (Translocator protein): 123 nM; activity at 20 min, 10 µM (CYP2C9): 21.1%; activity at 20 min, 10 µM (CYP1A2): 70.9%; activity at 20 min, 10 µM (CYP2D6): 38.4%
CCc1nnc(SCC(=O)NCc2ccccc2)c2cc3sc(C)cc3n12 | 29 | 55 | -3 | 
CCc1nnc(SCC(=O)N2CCN(c3ccccc3)CC2)c2cc3sc(C)cc3n12 | 99 | 70 | 41 | activity at 20 min, 10 µM (CYP2C19): 20.3%; activity at 20 min, 10 µM (CYP3A4): 20.6%; IC50 (Translocator protein): 2220 nM; activity at 20 min, 10 µM (CYP2C9): 38.8%; activity at 20 min, 10 µM (CYP1A2): 40.1%; activity at 20 min, 10 µM (CYP2D6): 81.7%
Cc1cc2c(cc3c(SCC(=O)NCc4ccccc4)nnc(C)n32)s1 | 61 | 35 | -50 | 
CCc1nnc(SCC(=O)Nc2ccccc2)c2cc3sc(C)cc3n12 | 92 | 61 | 22 | activity at 20 min, 10 µM (CYP2C19): 44.1%; activity at 20 min, 10 µM (CYP3A4): 34.1%; IC50 (Translocator protein): 1670 nM; activity at 20 min, 10 µM (CYP2C9): 95.9%; activity at 20 min, 10 µM (CYP1A2): 49.2%; activity at 20 min, 10 µM (CYP2D6): 17%
COC(=O)C1CCc2ccccc2N1C(=O)c1ccc(OC)cc1 (stereo unspecified) |  | 38 |  | 
Cc1nnc(SCC(=O)N2CCN(c3ccccc3)CC2)c2cc3sccc3n12 | 98 | 59 | 0 | 
CCc1nn(CC(=O)N(C)C)c(=O)c2cc3sccc3n12 | 98 | 12 | -3 | 

Structure (SMILES) | viability at 24 h, 5 µM [1] [%] | Activity [2] [%] | Activity [3] [%] | further results
O=S(=O)(c1ccccc1Cl)N1CCCC1c1cccs1 (stereo unspecified) | 114 | 67 | -61 | 
Cc1cc2c(cc3c(SCC(=O)N(C)c4ccccc4)nnc(C)n32)s1 | 87 | 56 | 33 | 
CCc1nnc(SCC(=O)N(C)c2ccccc2)c2cc3sc(Cl)cc3n12 | 78 | 61 | 22 | 
CCc1nnc(SCC(=O)Nc2ccccc2)c2cc3sc(Cl)cc3n12 | 95 | 66 | 4 | 
CCCC(=O)n1nc(-c2ccco2)nc1S(=O)(=O)Cc1ccccc1 |  | 0 |  | 
COC(=O)CN(c1ccc(C(C)C)cc1)S(=O)(=O)c1ccc(C)cc1 | 92 | 67 | -1 | 
Cc1cc2c(cc3c(SCC(=O)Nc4ccccc4)nnc(C)n32)s1 | 88 | 58 | 19 | 
CCc1nnc(SCC(=O)N(CC)Cc2ccccc2)c2cc3sc(C)cc3n12 | 82 | 67 | 25 | 
Cc1cc2c(cc3c(SCC(=O)N4CCN(c5ccccc5)CC4)nnc(C)n32)s1 | 99 | 69 | -9 | 
COC(=O)CN1C(=O)C2CCCCC2Sc2ncccc21 (stereo unspecified) |  | 0 |  | 
CCc1nnc(SCC(=O)Nc2ccc(OC)c(OC)c2)c2cc3sccc3n12 | 82 | 56 | 14 | 
CN1C(=O)CN=C(c2ccccc2)c2cc(Br)ccc21 |  | 0 |  | 
Cc1cc2c(cc3c(=O)n(CC(=O)N(C)c4ccccc4)nc(C)n32)s1 | 100 | 41 | 17 | 
Cc1noc(C)c1S(=O)(=O)NC(c1ccccc1)c1ccccc1 |  | 0 |  | 
CNC(=O)CN(c1ccc(Br)cc1)S(=O)(=O)c1ccc(C)cc1 |  | 35 |  | 
COc1ccccc1C1NC(=S)NC(C)=C1C(=O)OCc1ccccc1 (stereo unspecified) | 88 | 56 | 0 | 
Cc1nnc(SCC(=O)NCc2ccccc2)c2cc3sccc3n12 | 73 | 48 | 6 | 
CCc1nn(CC(=O)Nc2ccc(OC)c(OC)c2)c(=O)c2cc3sccc3n12 | 40 | 56 | -17 | 
C=CCN1C(=O)CN=C(c2ccccc2)c2c1sc(C)c2C | 93 | 75 | -2 | 
CCc1nnc(SCC(=O)NCc2ccccc2)c2cc3sccc3n12 | 54 | 50 | -15 | 

Structure (SMILES) | viability at 24 h, 5 µM [1] [%] | Activity [2] [%] | Activity [3] [%] | further results
CCc1nn(CC(=O)N(C)c2ccccc2)c(=O)c2cc3sccc3n12 | 93 | 50 | -9 | 
Cc1nnc(SCC(=O)Nc2ccccc2)c2cc3sccc3n12 | 96 | 59 | 5 | 
C=CCN1C(=O)CN=C(c2ccccc2C)c2cc(CC)sc21 |  | 0 |  | 
CCOC(=O)C1=C(C)N/C(=C/c2ccccc2OCc2ccccc2)C1=O |  | 22 |  | 
C=CCN1C(=O)CN=C(c2cccs2)c2c1sc1c2CCC1 |  | 38 |  | 
Cn1c(=O)oc2cc(NS(=O)(=O)Cc3ccco3)ccc21 | 103 | 41 | 14 | 
Cc1ccc(S(=O)(=O)NCc2cccnc2)c(C)c1 |  | 0 |  | 
COc1ccc(NC(=O)Cn2nc(C)n3c(cc4sc(C)cc43)c2=O)cc1OC | 97 | 52 | -8 | 
CCN(Cc1ccccc1)C(=O)CSc1nnc(C)n2c1cc1sccc12 | 99 | 63 | 8 | 
CCc1nn(CC(=O)N(CC)Cc2ccccc2)c(=O)c2cc3sccc3n12 | 100 | 57 | -11 | 
O=C(COc1ccc(Cl)cc1)ON=C(c1ccccc1)c1ccccc1 |  | 0 |  | 
CCN(Cc1ccccc1)C(=O)Cn1nc(C)n2c(cc3sc(C)cc32)c1=O | 90 | 45 | 9 | 
COc1cc(-c2nnc(SCc3c(F)cccc3Cl)o2)cc(OC)c1OC | 94 | 65 | -3 | 
O=C(Cc1coc2ccc3ccccc3c12)NCc1ccco1 | 96 | 85 | -3 | 
Cc1cc2c(cc3c(=O)n(CC(=O)N(C)C)nc(C)n32)s1 | 96 | 17 | 0 | 
CN1C(=O)CN=C(c2ccc(Cl)cc2)c2cc(Cl)ccc21 [RO-54864] | 100 | 12 | 9 | 
CCc1nnc(SCC(=O)Nc2ccc(OC)c(OC)c2)c2cc3sc(Cl)cc3n12 | 94 | 69 | 7 | 
CCc1nnc(SCC(=O)N2CCN(c3ccccc3)CC2)c2cc3sc(Cl)cc3n12 | 99 | 50 | -2 | 
